Type in all cases: in vivo
Test [1] deals with Abutilon theophasti Medik. (ABUTH). Put plainly: Test 1A glasshouse assay for herbicidal activity, pre-emergence. Conditions: 312 h, 250 g/ha, evaluated after 13 days, read-out: percentage phytotoxicity ABUTH. As for the experimental part: (§1) Seeds of a variety of test species were sown in standard soil in pots. After cultivation for one day (pre-emergence) or after 8 days cultivation (post-emergence) under controlled conditions in a glasshouse (at 24/16° C., day/night; 14 hours light; 65% humidity), the plants were sprayed with an aqueous spray solution derived from the formulation of the technical active ingredient in acetone/I water (50:50) solution containing 0.5% Tween 20 (polyoxyethelyene sorbitan monolaurate, CAS RN 9005-64-5). The test plants were then grown in a glasshouse under controlled conditions in a glasshouse (at 24/16° C., day/night; 14 hours light; 65% humidity) and watered twice daily. After 13 days for pre and post-emergence, the test was evaluated visually for percentage phytotoxicity to the plant (where 100=total damage to plant; 0=no damage to plant).
(§2) Alopecurus myosuroides (ALOMY), Setaria faberi (SETFA), Echinochloa crus-galli (ECHCG), Solanum nigrum (SOLNI), Amaranthus retroflexus (AMARE), Ipomoea hederacea (IPOHE), and Abutilon theophasti Medik. (ABUTH, common English name “velvetleaf”). Of these, Alopecurus myosuroides (ALOMY), Setaria faberi (SETFA), and Echinochloa crus-galli (ECHCG) are grassy monocotyledonous weeds.

Test [2] has as its system Alopecurus myosuroides (ALOMY). Described as above. Conditions: 312 h, 250 g/ha, evaluated after 13 days, read-out: percentage phytotoxicity ALOMY. As for the experimental part:
as §1, §2

The test system of test [3] is Amaranthus retroflexus (AMARE). The description is as above. Particulars: 312 h, 250 g/ha, evaluated after 13 days, read-out: percentage phytotoxicity AMARE. As for the experimental part: as §1, §2
The subject of test [4] is Echinochloa crus-galli (ECHCG). The test is described as above. Particulars: 312 h, 250 g/ha, evaluated after 13 days, read-out: percentage phytotoxicity ECHCG. As for the experimental part:
as §1, §2

Test [5] relates to Setaria faberi (SETFA). The description is as above. Particulars: 312 h, 250 g/ha, evaluated after 13 days, read-out: percentage phytotoxicity SETFA. As for the experimental part: as §1, §2
In test [6] the test system is Abutilon theophasti Medik. (ABUTH). Description: Test 1A glasshouse assay for herbicidal activity, post-emergence. Particulars: 312 h, evaluated after 13 days, read-out: percentage phytotoxicity ABUTH. As for the experimental part: as §1, §2
For test [7], the system named is Alopecurus myosuroides (ALOMY). The description is as above. Particulars: 312 h, evaluated after 13 days, read-out: percentage phytotoxicity ALOMY. As for the experimental part:
as §1, §2

Test [8] deals with Amaranthus retroflexus (AMARE). The description is as above. Particulars: 312 h, evaluated after 13 days, read-out: percentage phytotoxicity AMARE. As for the experimental part:
as §1, §2

Test [9] relates to Echinochloa crus-galli (ECHCG). The description is as above. Conditions: 312 h, evaluated after 13 days, read-out: percentage phytotoxicity ECHCG. As for the experimental part:
as §1, §2

In test [10] the test system is Setaria faberi (SETFA). The description is as above. Particulars: 312 h, evaluated after 13 days, read-out: percentage phytotoxicity SETFA. As for the experimental part: as §1, §2
In test [11] the test system is Alopecurus myosuroides (ALOMY). Description: Biological Example 2 comparative herbicidal data, post-emergence glasshouse screen. Particulars: 312 h, read-out: Post-emergence herbicidal activities (percentage phytotoxicity) ALOMY; for pest or weed control at 15.625 g/ha: 15.625 g/ha application rate; for pest or weed control at 62.5 g/ha: 62.5 g/ha application rate. As for the experimental part:
as §1
(§3) Comparative herbicidal data is given below for certain exemplified compounds with 4-(prop-1-ynyl)-2,6-dimethylphenyl or 4-(chloroethynyl)-2,6-dimethylphenyl headgroups, compared to the corresponding compounds with either 4-ethynyl-2,6-dimethylphenyl or 2,4,6-trimethylphenyl headgroups, as follows. Comparative herbicidal data is also given below for certain exemplified compounds with 4-(prop-1-ynyl)-2-chloro-6-methoxyphenyl headgroups, compared to the corresponding compounds with 4-ethynyl-2-chloro-6-methoxyphenyl or 4-(but-1-ynyl)-2-chloro-6-methoxyphenyl or 4-methyl-2-chloro-6-methoxyphenyl or 2-chloro-6-methoxyphenyl headgroups, as follows.
(§4) Except where specified otherwise, the glasshouse screen for herbicidal activity is substantially the same as that presented in Biological Example 1A (Test 1A) hereinabove. The weed abbreviations are as defined in Biological Example 1A.

The subject of test [12] is Echinochloa crus-galli (ECHCG). The description is as above. Particulars: 312 h, read-out: Post-emergence herbicidal activities (percentage phytotoxicity) ECHCG; for pest or weed control at 15.625 g/ha: 15.625 g/ha application rate; for pest or weed control at 62.5 g/ha: 62.5 g/ha application rate. As for the experimental part: as §1, §3, §4
Test [13] relates to Setaria faberi (SETFA). The test is described as above. Conditions: 312 h, read-out: Post-emergence herbicidal activities (percentage phytotoxicity) SETFA; for pest or weed control at 15.625 g/ha: 15.625 g/ha application rate; for pest or weed control at 62.5 g/ha: 62.5 g/ha application rate. As for the experimental part: as §1, §3, §4

For `CC#Cc1ccc(C2C(=O)C3CCC(C3)C2=O)c(Cl)c1` (centres unmarked) [Compound A-11], the pest or weed control at 250 g/ha in test [1] was 50%; in test [2], 100%; in [3] it was 70%; in test [4], 100%; with Setaria faberi (SETFA) [5] it was 80%; in [6] it was 80%. Besides, the pest or weed control at 250 g/ha is 100% in test [7], 30% in [8], 100% in test [9] and 100% with Setaria faberi (SETFA) [10].

Consider `CC#Cc1cc(Cl)c(C2C(=O)C3CCC(C3)C2=O)c(OCC(F)(F)F)c1` (centres unmarked) [Compound A-19, 3-[2-chloro-4-prop-1-ynyl-6-(2,2,2-trifluoroethoxyl)phenyl]bicyclo[3.2.1]octane-2,4-dione], for which the pest or weed control at 250 g/ha is 0% in [1]; 40% in test [2]; 0% in test [3]; 60% in [4]; 60% in the test on Setaria faberi (SETFA) [5]; 0% in test [6]. The pest or weed control at 250 g/ha came to 70% in [7], 0% in test [8], 100% in [9] and 90% with Setaria faberi (SETFA) [10].

As to `CC#Cc1cc(Cl)c(C2C(=O)CC(CCSC)CC2=O)c(OC)c1` (centres unmarked) [Compound A-23, 2-(2-Chloro-6-methoxy-4-prop-1-ynyl-phenyl)-5-(2-methylsulfanylethyl)cyclohexane-1,3-dione], the pest or weed control at 250 g/ha in test [1] is 30%; in test [2] it was 90%; in [3] it was 70%; in [4], 100%; in the test on Setaria faberi (SETFA) [5], 90%; in test [6] it was 70%. For the same compound, the pest or weed control at 250 g/ha in [7] is 90%; in test [8] it was 20%; in test [9] it was 100%; with Setaria faberi (SETFA) [10], 100%. The pest or weed control at 30 g/ha stood at 30% in test [6]; 60% in [7]; 10% in test [8]; 100% in test [9]; 100% in the test on Setaria faberi (SETFA) [10].

Consider `CC#Cc1cc(Cl)c(C2=C(OC(=O)c3ccc(Cl)cc3)CC(C3CCOCC3)CC2=O)c(OC)c1` (centres unmarked) [Compound P-3], for which the pest or weed control at 250 g/ha in [1] was 80%; in test [2], 100%; in test [3], 100%; in [4] it was 100%; with Setaria faberi (SETFA) [5], 100%; in test [6] it was 80%. The pest or weed control at 250 g/ha in test [7] amounted to 90%; in test [8], 80%; in [9], 100%; in the test with Setaria faberi (SETFA) [10], 100%. Moreover, the pest or weed control at 8 g/ha came out at 20% in [6] (8 g/ha); 90% in [7] (8 g/ha); 20% in test [8] (8 g/ha); 100% in [9] (8 g/ha); 100% with Setaria faberi (SETFA) [10] (8 g/ha). Also, the pest or weed control at 30 g/ha in [6] was determined as 70%; in test [7] it was 100%; in [8], 80%; in test [9], 100%; in the test with Setaria faberi (SETFA) [10], 100%.

Consider `CC#Cc1cc(C)c(C2=C(OS(C)(=O)=O)CC(CC3CCOCC3)CC2=O)c(C)c1` (centres unmarked) [Compound P-4], for which the pest or weed control at 250 g/ha was found to be 10% in test [1]; 80% in test [2]; 20% in [3]; 100% in test [4]; 80% in the test with Setaria faberi (SETFA) [5]; 0% in test [6]. The pest or weed control at 250 g/ha in test [7] was determined as 80%; in [8], 0%; in [9], 80%; in the test on Setaria faberi (SETFA) [10], 80%.

With `CC#Cc1cc(Cl)c(C2=C(OC(=O)SCC)C3CCC(C3)C2=O)c(OCC(F)(F)F)c1` (centres unmarked) [Compound P-6, [3-[2-Chloro-4-prop-1-ynyl-6-(2,2,2-trifluoroethoxyl)phenyl]-4-oxo-2-bicyclo[3.2.1]oct-2-enyl]ethylsulfanylformate], the pest or weed control at 250 g/ha in test [1] was found to be 0%; in test [2], 10%; in [3] it was 20%; with Setaria faberi (SETFA) [5], 10%; in test [6] it was 0%; in test [7], 50%. The figures for the pest or weed control at 250 g/ha (in [8]; in [9]; with Setaria faberi (SETFA) [10]) were 20%, 80% and 50%, respectively.

For the compound `C#Cc1ccc(C2C(=O)C(C)(C)OC(C)(C)C2=O)c(C)c1` [Compound X-1, reference compound], the pest or weed control at 15.625 g/ha in [11] was 20%; in test [12], 0%; in the test on Setaria faberi (SETFA) [13], 0%. For the same compound, the pest or weed control at 62.5 g/ha in [11] is 10%; in [12], 0%; in the test with Setaria faberi (SETFA) [13], 30%.

In the case of `C#Cc1cc(C)c(C2C(=O)C3CCC(C3)C2=O)c(C)c1` (centres unmarked) [Compound X-2, reference compound], the pest or weed control at 15.625 g/ha was determined as 0% in test [11], 0% in test [12] and 50% in the test on Setaria faberi (SETFA) [13]. The figures for the pest or weed control at 62.5 g/ha (in [11]; in test [12]; in the test with Setaria faberi (SETFA) [13]) were 10%, 70% and 60%, respectively.

For the compound `C#Cc1cc(C)c(C2C(=O)CC(CC3CCOCC3)CC2=O)c(C)c1` (centres unmarked) [Compound X-3, reference compound], the pest or weed control at 15.625 g/ha came to 30% in test [11], 20% in [12] and 60% in the test on Setaria faberi (SETFA) [13]. Also, the figures for the pest or weed control at 62.5 g/ha (in [11]; in test [12]; in the test on Setaria faberi (SETFA) [13]) were 60%, 50% and 70%, respectively.

For the origin of these results see US9615577B2, “Herbicidally active cyclic dione compounds, or derivatives therefor, substituted by a phenyl which has an alkynyl-containing substituent” (Syngenta Limited, priority 2012, dated 2017).
